The record followed here is patent US10611778B2, “Fused bicyclic inhibitors of menin-MLL interaction” (Janssen Pharmaceutica NV, priority 2016, dated 2020).

The target of experiment [1] is T1, Menin/MLL (terbium chelate-labeled menin, FITC-MBM1 peptide) (Homo sapiens, UniProt O00255, T541A).
T1 construct: Menin (a.a. 1-610-6×his tag) was labeled with terbium cryptate as follows
T1 sequence (O00255 with tags, fused parts or gaps T541A): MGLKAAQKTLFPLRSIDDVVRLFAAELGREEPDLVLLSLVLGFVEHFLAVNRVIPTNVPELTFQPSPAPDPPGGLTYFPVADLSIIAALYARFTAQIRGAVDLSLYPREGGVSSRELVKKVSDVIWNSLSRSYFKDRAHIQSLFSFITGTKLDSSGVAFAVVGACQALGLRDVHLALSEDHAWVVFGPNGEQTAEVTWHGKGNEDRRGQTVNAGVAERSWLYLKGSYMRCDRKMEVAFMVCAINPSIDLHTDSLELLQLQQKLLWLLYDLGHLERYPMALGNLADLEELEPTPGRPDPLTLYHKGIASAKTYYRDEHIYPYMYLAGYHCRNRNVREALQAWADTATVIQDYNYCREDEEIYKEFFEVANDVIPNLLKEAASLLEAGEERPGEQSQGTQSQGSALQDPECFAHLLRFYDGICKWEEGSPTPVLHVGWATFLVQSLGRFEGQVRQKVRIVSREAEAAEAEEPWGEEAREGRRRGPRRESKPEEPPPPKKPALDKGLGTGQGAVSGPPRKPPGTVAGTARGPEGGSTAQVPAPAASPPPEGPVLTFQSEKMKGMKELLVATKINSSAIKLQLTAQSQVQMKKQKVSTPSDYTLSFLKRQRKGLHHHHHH
Nature of the experiment: Menin/MLL homogenous time-resolved fluorescence (HTRF) assay. The conditions noted are these: averaged values over all measurements; read-out: Menin HTRF assay (IC50). It is filed as binding. Put shortly: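 Compound preincubated 5 min with terbium-cryptate-labeled menin (aa 1-610, His-tagged; 100 pM final), then 75 nM FITC-MBM1 peptide added, 15 min at ambient temperature; 0.5% DMSO, Tris pH 7.5 buffer. HTRF ratio 520/490 nm; % inhibition vs saturating competitor, IC50 from 11-point three-fold titration from 31 μM.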
Background: Time-resolved FRET reads energy transfer from a long-lived donor to a nearby acceptor.

The next experiment relates to MV-4-11. Nature of the experiment: Proliferation assay (spheroid assay) MV-4-11. It is filed as cell-based, human. The note with it: Homo sapiens, MV4-11, MV-4-11; averaged values over all measurements; read-out: Spheroid assay MV-4-11 (IC50). How it is done: (§1) The anti-proliferative effect of menin/MLL protein/protein interaction inhibitor test compounds was assessed in human leukemia cell lines. The cell lines MV-4-11 and MOLM14 harbor MLL translocations and express the MLL fusion proteins MLL-AF4 and MLL-AF9, respectively, as well as the wildtype protein from the second allele. […] K562 and KG1 were used as a control cell lines containing two MLL wildtype alleles in order to exclude compounds that display general cytotoxic effects.
(§2) MV-4-11 and MOLM14 were cultured in RPMI-1640 (Sigma Aldrich) supplemented with 10% fetal bovine serum (HyClone), 2 mM L-glutamine (Sigma Aldrich) and 50 μg/ml gentamycin (Gibco). K562 were propagated in RPMI-1640 (Sigma Aldrich) supplemented with 20% fetal bovine serum (HyClone), 2 mM L-glutamine (Sigma Aldrich) and 50 μg/ml gentamycin (Gibco). KG1 were cultured in Iscove's MDM (Gibco) supplemented with 20% fetal bovine serum (HyClone), 2 mM L-glutamine (Sigma Aldrich) and 50 μg/ml gentamycin (Gibco).
(§3) In order to assess the anti-proliferative effects, 1,500 MV-4-11, 300 MOLM14, 750 K562 or 1,300 KG1 cells were seeded in 200 μl media per well in 96-well round bottom, ultra-low attachment plates (Costar, catalogue number 7007). Cell seeding numbers were chosen based on growth curves to ensure linear growth throughout the experiment. Test compounds were added at different concentrations and the DMSO content was normalized to 0.3%. Cells were incubated for 8 d at 37° C. and 5% CO2. Spheroid like growth was monitored in real-time by live-cell imaging (IncuCyteZOOM, Essenbio, 4× objective) acquiring one image every four hours for 8 d. Confluence (%) as a measure of spheroid size was determined using an integrated analysis tool.
(§4) In order to determine the cumulative effect of the test compounds over time, the area under the curve (AUC) in a plot of confluence against time was calculated. Confluence at the beginning of the experiment (t=0) was used as baseline for the AUC calculation.
(§5) Absolute IC50 values were calculated according to the following procedure: % Control=(AUC sample/AUC control)*100
(§6) AUC control=mean AUC of control values (cells without compound/DMSO as vehicle control)
(§7) A non-linear curve fit was applied using the least squares (ordinary) fit method to the plot of % control versus compound concentration. Based on this, the absolute IC50 value (half maximal inhibitory concentration of the test compound causing an anti-proliferative effect of 50% relative to the vehicle control) was calculated.

Experiment [2] deals with T2, Menin/MLL (menin, FITC-MBM1 peptide) (Homo sapiens, UniProt O00255, T541A).
T2 construct: 6xHis (C)
T2 sequence (O00255 with tags, fused parts or gaps T541A): T1 sequence (O00255 with tags, fused parts or gaps T541A)
Nature of the experiment: Menin/MLL fluorescence polarization (FP) assay. The conditions noted are these: averaged values over all measurements; read-out: Menin FP assay (IC50). It is filed as binding. On the procedure: Pharmacological Part 1) Menin/MLL Fluorescence Polarization Assay
To a non-surface binding, black 384-well microtiter plate was added 50 nL 160× test compound in DMSO and 4 μL 2× menin in assay buffer (40 mM Tris-HCl, pH 7.5, 50 mM NaCl, 1 mM DTT and 0.001% Tween 20). After incubation of test compound and menin for 10 min at ambient temperature, 4 μL 2×FITC-MBM1 peptide (FITC-β-alanine-SARWRFPARPGT-NH2) in assay buffer was added, the microtiter plate centrifuged at 1000 rpm for 1 min and the assay mixtures incubated for 15 min at ambient temperature. The relative amount of menin: FITC-MBM1 complex present in an assay mixture is determined by measuring the fluorescence polarization (FP) of the FITC label with a BMG Pherastar plate reader (ex. 485 nm/em. 520 nm) at ambient temperature. The final concentrations of reagents in the binding assay are 100 nM menin, 5 nM FITC-MBM1 peptide and 0.625% DMSO in assay buffer. Dose-response titrations of test compounds are conducted using an 11 point, three-fold serial dilution scheme, starting at 31 μM.
Compound potencies were determined by first calculating % inhibition at each compound concentration according to equation 1: % inhibition=((HC−LC)−(FP^compound−LC))/(HC−LC))*100 (Eqn 1)
Where LC and HC are the FP values of the assay in the presence or absence of a saturating concentration of a compound that competes with FITC-MBM1 for binding to menin, and FP^compound is the measured FP value in the presence of the test compound. HC and LC FP values represent an average of at least 16 replicates per plate.
Where Bottom and Top are the lower and upper asymptotes of the dose-response curve, respectively, IC50 is the concentration of compound that yields 50% inhibition of signal and h is the Hill coefficient.
(In general: Polarisation of emitted light reports the rotation of a fluorescent probe.)

The next experiment has as its system MOLM14. Nature of the experiment: Proliferation assay (spheroid assay) MOLM14. Type of experiment: cell-based, human. The conditions noted are these: Homo sapiens, MOLM-14, MOLM14; averaged values over all measurements; read-out: Spheroid assay MOLM14 (IC50). On the procedure:
as §1, §2, §3, §4, §5, §6, §7

The subject of another experiment is KG1. Nature of the experiment: Proliferation assay (spheroid assay) KG1 control cell line. The conditions noted are these: Homo sapiens, KG-1, averaged values over all measurements. Type of experiment: cell-based. How it is done:
as §1, §2, §3, §4, §5, §6, §7

The structures appear in SMILES notation.

As usually defined, the IC50 is the concentration that inhibits the measured activity by half. Regarding `FC(F)(F)Cc1cc2c(N3CC[C@@H]4[C@@H](CCN4Cc4ccccc4)C3)ncnc2s1` (single isomer, unassigned) [Compound 3], the IC50 in experiment [1] stood at 61 nM; with MV-4-11, 2000 nM; in experiment [2], 89 nM; in the experiment on MOLM14 it was 3800 nM.
Taken in the same sequence, the figures for `FC(F)(F)Cc1cc2c(N3CC[C@H]4[C@H](CCN4Cc4ccccc4)C3)ncnc2s1` (single isomer, unassigned) [Compound 4] were 69 nM, 8300 nM, 230 nM and 12800 nM.
`Cn1cc(CN2CC[C@H]3CN(c4ncnc5sc(CC(F)(F)F)cc45)CC[C@H]32)cn1` (single isomer, unassigned) [Compound 9]: the IC50 in experiment [1] turned out to be 106 nM; with MV-4-11 it was 3500 nM; in experiment [2], 98 nM; in the experiment on MOLM14, 10300 nM.
Consider `FC(F)(F)Cc1cc2c(N3CC[C@@H]4[C@@H](CCN4Cc4ccc(Cl)nc4)C3)ncnc2s1` (single isomer, unassigned) [Compound 10], for which the IC50 in experiment [1] worked out at 118 nM; in the experiment with MV-4-11, 4400 nM; in experiment [2], 250 nM; with MOLM14 it was 2000 nM.
Take `FC(F)(F)Cc1cc2c(N3CC[C@H]4[C@H](CCN4Cc4ccc(Cl)nc4)C3)ncnc2s1` (single isomer, unassigned) [Compound 11]: the IC50 in experiment [1] is 680 nM; in the experiment on MV-4-11, greater than 15000 nM; in experiment [2], 590 nM; in the experiment with MOLM14, greater than 15000 nM.
For the molecule `Cc1nc(CN2CC[C@H]3CN(c4ncnc5sc(CC(F)(F)F)cc45)CC[C@H]32)cs1` (single isomer, unassigned) [Compound 12], the IC50 in experiment [1] was 860 nM; in the experiment with MV-4-11, 2100 nM; in experiment [2], 430 nM; in the experiment with MOLM14, 9200 nM.
Consider `Cn1cc(CN2CC[C@@H]3CN(c4ncnc5sc(CC(F)(F)F)cc45)CC[C@@H]32)cn1` (single isomer, unassigned) [Compound 13], for which the IC50 in the experiment with MV-4-11 was 13700 nM; in experiment [2], 520 nM; with MOLM14, greater than 15000 nM.
As for `Cc1cncc(CN2CC[C@@H]3CN(c4ncnc5sc(CC(F)(F)F)cc45)C[C@@H]3C2)c1` (single isomer, unassigned) [Compound 39], the IC50 in experiment [1] was determined as 165 nM; in the experiment with MV-4-11, 670 nM; in the experiment with KG1 it was 2500 nM.
Turning to `COc1ncccc1CN1CC[C@@H]2CN(c3ncnc4sc(CC(F)(F)F)cc34)C[C@@H]2C1` (single isomer, unassigned) [Compound 44], the values for the IC50 (in experiment [1]; with MV-4-11; with KG1) were 87 nM, 2100 nM and greater than 15000 nM, respectively.
For the molecule `CC(C)(CO)CN1CC[C@@H]2CN(c3ncnc4sc(CC(F)(F)F)cc34)C[C@@H]2C1` (single isomer, unassigned) [Compound 58], the IC50 in experiment [1] is 63 nM; with MV-4-11, 990 nM; in the experiment on KG1, greater than 15000 nM.
As to `FC(F)(F)Cc1cc2c(N3C[C@H]4CCN(CC5CCCOC5)C[C@H]4C3)ncnc2s1` (single isomer, unassigned) [Compound 99], the IC50 in experiment [1] is 33 nM; with MV-4-11, 240 nM; with KG1 it was greater than 15000 nM.
Regarding `FC(F)(F)Cc1cc2c(N3C[C@H]4CCN(CC5CCCCO5)C[C@H]4C3)ncnc2s1` (single isomer, unassigned) [Compound 100], the IC50 in experiment [1] is 57 nM; in the experiment with MV-4-11, 930 nM; with KG1, greater than 15000 nM.
Consider `Cn1cc(CN2CC3CN(c4ncnc5sc(CC(F)(F)F)cc45)CC3C2)cn1` (stereo not drawn) [Compound 18], for which the IC50 in experiment [1] is 1130 nM; in the experiment with MV-4-11, greater than 15000 nM; in experiment [2], 520 nM; with MOLM14 it was greater than 15000 nM.
As for `OCCn1cccc1CN1CCC2CN(c3ncnc4sc(CC(F)(F)F)cc34)CCC21` (stereo not drawn) [Compound 23], the IC50 in experiment [1] is 366 nM; in the experiment with MV-4-11, 1700 nM; in experiment [2], 220 nM; in the experiment on MOLM14, 4300 nM.
For the molecule `Cn1cc(CN2CC[C@@H]3CN(c4ncnc5sc(CC(F)(F)F)cc45)C[C@@H]32)cn1` [Compound 27A], the IC50 in experiment [1] came out at 10000 nM; in experiment [2], 4540 nM.
In the same order, the values of `Cn1cc(CN2CC[C@H]3CN(c4ncnc5sc(CC(F)(F)F)cc45)C[C@H]32)cn1` [Compound 27B] are 8990 nM and 3650 nM.
For `FC(F)(F)Cc1cc2c(N3C[C@@H]4CN(Cc5ccccc5)[C@@H]4C3)ncnc2s1` [Compound 32], the values for the IC50 in experiment [1] and in experiment [2] were 2780 nM and 1560 nM, respectively.
`FC(F)(F)Cc1cc2c(N3C[C@H]4CN(Cc5ccccc5)[C@H]4C3)ncnc2s1` [Compound 33]: the IC50 in experiment [1] was found to be 2100 nM; in experiment [2], 1190 nM.
With `Cn1cc(CN2CC3CCN(c4ncnc5sc(CC(F)(F)F)cc45)CC3C2)cn1` (stereo not drawn) [Compound 34], the IC50 in experiment [1] amounted to 1980 nM; in experiment [2], 780 nM.
For `Cn1cc(CN2CCC3CN(c4ncnc5sc(CC(F)(F)F)cc45)CC3C2)cn1` (stereo not drawn) [Compound 71], the IC50 in experiment [1] came to 70 nM; in the experiment with MV-4-11, 840 nM; in experiment [2] it was 88 nM; in the experiment with MOLM14, 6700 nM.
Regarding `FC(F)(F)Cc1cc2c(N3CCC4C(CCN4Cc4cc[nH]n4)C3)ncnc2s1` (stereo not drawn) [Compound 84], the IC50 in experiment [1] was found to be 906 nM; in experiment [2], 1020 nM.
